Measurements taken from patent US20010025059A1, “Composition and method for treating non-bacterial prostatitis” (priority 2000, published 2001).

How the values were obtained:
[1] = tested on: non-bacterial prostatitis; test: Example II: double blind study, 30 patients without positive bacterial cultures localized to the prostatic fluid; format: in vivo, human
Method: A double blind study using 30 patients without positive bacterial cultures localized to the prostatic fluid were enrolled in a double blind study. Seventeen of the patients received a composition comprised of quercetin in amount of 500 milligrams, bromelain in an amount of 10 milligrams, and papain in an amount of 10 milligrams as the active ingredients thereof. After a randomized study was completed, an additional fifteen patients were treated in an open label study with […]. […] The mean symptom score improved from 21.0 to 13.1 in the group receiving quercetin, but from 20.2 to 18.8 in the placebo group. This represented an improvement of 35%. In those patients which received only the quercetin, without the papain and bromelain, with obtainable extra prostatic secretions, the white blood cell count in the prostatic fluid decreased from 16.8 to 5.3, versus a decrease from 13.1 to 8.3 in the placebo patients.

[2] = Tests of bioavailability / transmural intestinal absorption; format: in vivo; conditions: quercetin alone; transmural intestinal absorption relatively low

Compound: O=c1c(O)c(-c2ccc(O)c(O)c2)oc2cc(O)cc(O)c12 [quercetin]
- mean symptom score, after treatment ([1]; end of study): 13.1
- improvement of mean symptom score ([1]; human, in vivo): 35%
- white blood cell count in the prostatic fluid, after treatment ([1]; patients with obtainable prostatic secretions, end of study): 5.3
- white blood cell count in the prostatic fluid, before treatment ([1]; patients with obtainable prostatic secretions, starting value): 16.8
- mean symptom score, before treatment ([1]; starting value of the group): 21.0
- bioavailability [2]: does not have a high bioavailability
